These results are taken from patent publication US8911953B2, “TDF-related compounds and analogs thereof, analogs and bioactive fragments” (Thrasos Innovation, Inc., priority 2005, dated 2014).

Positions of bridges follow the written chain, without caps; N, C: chain ends. No end group written: not given here.

Test [1] concerns HK-2 (Human Kidney-2) cells. Kind of test: HK-2 cell culture, TNF-alpha induced cytokine and adhesion molecule production (ELISA). It is filed as cell-based. As to conditions: proximal tubule cells. On the procedure: Injury of PTEC by TNF-α and cisplatin (an anti-neoplastic agent) results in the induction of apoptosis, as shown by DNA damage, mitochondial disfunction, BAX […] and caspase activation. BMP-7 protects PTEC/kidney function by inhibiting TNF-α and cisplatin-induced apoptosis in these cells. The immortalized PTEC-derived HK-2 (Human Kidney-2) cells (ATCC number CRL-2190) were grown in serum-free keratinocyte medium (GIBCO number 17005-042) supplemented with epidermal growth factor (EGF: 5 ng/mL) and bovine pituitary extract (40 ug/mL) for 48 hours as described previously (Ryan et al. (1994) Kidney International 45:48-57). Cells were transferred to 24-well plates at a density of 3×10^5 cells per well. After 24 hours, cells were incubated with fresh medium containing TNF-alpha (5 ng/mL) for 20 hours. Controls received medium alone. Then cells were washed twice with fresh culture medium and further incubated with culture medium alone (medium control, and TNF control wells) or TDF-1 at three different concentrations (40, 200 or 1000 ng/mL) or TDFRP compounds at three different concentrations (4, 20 or 100 uM) for sixty hours. During incubation, cells were kept in a 5% CO2 humid atmosphere at 37° C. […] The concentrations of IL-6, IL-8 and sICAM-1 in culture supernatants were measured by specific ELISA (FIG. 14). […]
A general note: An ELISA detects its analyte on a solid surface through an enzyme-linked reagent.

In test [2] the test system is bladder cancer cells (5637). Kind of test: Cisplatin-induced apoptosis/necrosis in bladder cancer cells. Format: cell-based, human. As to conditions: cisplatin at different concentrations.
The test system of test [3] is renal tubular epithelial cells. As to conditions: 100 ng/ml, 48 hours; cited from earlier work.

As for “CYFDDSSNVLCKKYRS (disulfide 1-11 (inferred); not fully specified) [SEQ ID NO:45]”, the “TNF-alpha induced inflammatory response (increase in IL-6)” value in test [1] is “alleviate”. The “apoptosis/necrosis induced by cisplatin (interference with anti-tumor activity)” value in test [2] is given as “does not alter”.

B1: BMP-7: recombinant human mature BMP-7 (BMP-7 or TDF-1), positive control therapy (protein)
chain: STGSKQRSQNRSKTPKNQEALRMANVAENSSSDQRQACKKHELYVSFRDLGWQDWIIAPEGYAAYYCEGECAFPLNSYMNATNHAIVQTLVHFINPETVPKPCCAPTQLNAISVLYFDDSSNVILKKYRNMVVRACGCH
As for B1, the “TGF-beta1 induced EMT” value in test [3] is “reverses”.
